Laboratory results: US10000787B2, “Methods for diagnosing bacterial infections” (STC.UNM, priority 2012, dated 2018)

Molecular target: T1, pHPA decarboxylase (Clostridioides difficile, UniProt Q84F16)
T1 construct: Isolated cell free extract of C. difficile; endogenous in cells; host or cells: C. difficile cell-free extract
Experiment: estimated ^13CO2 production from labeled substrate by pHPA decarboxylase in a C. difficile infection
Type: in vivo
Conditions: infection in which 10 mg of bacterial protein is present; worked out from 12 mU per mg of protein pHPA decarboxylase in isolated cell free extract of C. difficile
Description: The compositions of the invention can also be administered intravenously. Isolated cell free extract of C. difficile contains 12 mU per mg of protein of the activating enzyme pHPA decarboxylase. This correlates to the production of 2.7 mL of ^13CO2 per minute in an infection in which 10 mg of bacterial protein is present when a patient is treated with a compound of the invention, for example, ^13C-hydroxyphenylacetate. Oftentimes, a patient is infected with much more than 10 mg of bacterial protein with a C. difficile infection.
Assuming 15 liters of air is respired per minute, and with 4% exhaled CO2, a patient will exhale about 600 ml of CO2 per minute, of which approximately 6.6 mLs will be ^13CO2. […] Thus, efficient delivery of isotopically-labeled compound is important. Preferably, an intravenous dosage form is administered to the patient, leading to rapid increases in intestinal levels, and allowing breath testing from 10 to 120 minutes after dosage. Such dosage forms are sterile and particle-free. Preparation methods for such dosage forms are known in the art.

T1 sequence (Q84F15 whole entry): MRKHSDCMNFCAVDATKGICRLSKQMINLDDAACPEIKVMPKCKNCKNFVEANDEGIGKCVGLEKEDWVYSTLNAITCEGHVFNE
T1 sequence (Q84F16 whole entry): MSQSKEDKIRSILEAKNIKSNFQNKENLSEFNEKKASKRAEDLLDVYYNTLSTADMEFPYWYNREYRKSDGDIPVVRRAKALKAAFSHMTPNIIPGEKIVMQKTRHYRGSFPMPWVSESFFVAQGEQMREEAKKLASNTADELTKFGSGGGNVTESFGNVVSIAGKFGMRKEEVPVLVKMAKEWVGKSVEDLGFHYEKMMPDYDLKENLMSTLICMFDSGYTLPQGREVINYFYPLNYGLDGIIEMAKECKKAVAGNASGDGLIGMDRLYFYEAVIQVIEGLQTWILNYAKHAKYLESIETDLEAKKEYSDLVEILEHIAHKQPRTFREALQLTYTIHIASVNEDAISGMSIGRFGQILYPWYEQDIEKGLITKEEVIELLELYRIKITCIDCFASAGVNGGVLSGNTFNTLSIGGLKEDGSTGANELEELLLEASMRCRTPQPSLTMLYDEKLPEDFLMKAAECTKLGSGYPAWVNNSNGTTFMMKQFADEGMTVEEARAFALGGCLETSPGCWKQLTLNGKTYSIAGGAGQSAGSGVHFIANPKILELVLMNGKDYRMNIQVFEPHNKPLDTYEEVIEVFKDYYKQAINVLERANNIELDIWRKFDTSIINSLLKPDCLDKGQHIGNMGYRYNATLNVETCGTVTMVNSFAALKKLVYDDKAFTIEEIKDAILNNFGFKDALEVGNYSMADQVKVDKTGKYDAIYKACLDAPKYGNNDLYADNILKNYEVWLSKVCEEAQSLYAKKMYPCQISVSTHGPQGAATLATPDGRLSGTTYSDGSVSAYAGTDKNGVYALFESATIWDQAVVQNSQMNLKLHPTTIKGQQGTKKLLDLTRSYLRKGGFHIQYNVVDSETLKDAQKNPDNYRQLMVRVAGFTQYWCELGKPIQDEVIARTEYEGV

Substance: ^13C-hydroxyphenylacetate
- production of ^13CO2: 2.7 mL per minute
